Counter-ions that a name gives are not always drawn.

`CCCc1nn(C)c2c(Nc3ccc(OC)c(Cl)c3)nc(-c3cccs3)nc12.Cl` yielded a melting point of 258 to 260 °C.

`CCCc1nn(C)c2c(-c3ccc(OC)c(F)c3)nc(-c3ccccc3)nc12` [E 61, 7-(3-fluoro-4-methoxy-phenyl)-1-methyl-5-phenyl-3-propyl-1H-pyrazolo[4,3-d]pyrimidine] registered a melting point of 158 to 160 °C. Next, `Cc1nn(C)c2cc(-c3ccc(F)cc3)nc(-c3cccc(S(C)(=O)=O)c3)c12` [E 93, 6-(4-fluoro-phenyl)-4-(3-methanesulfonyl-phenyl)-1,3-dimethyl-1H-pyrazolo[4,3-c]pyridine]: 186 to 188 °C; `CCCc1nn(C)c2c(-c3ccc(OC)c(C)c3)nc(-c3ccc(F)cc3)nc12` [E 58, 5-(4-fluoro-phenyl)-7-(4-methoxy-3-methyl-phenyl)-1-methyl-3-propyl-1H-pyrazolo[4,3-d]pyrimidine]: 136 to 138 °C; `Cc1nn(C)c2c(Nc3ccc(Cl)nc3)nc(-c3ccc(F)cc3)nc12.Cl`: 248 to 250 °C.

For `CCCc1nn(C)c2c(Nc3ccc(O)c(F)c3)nc(-c3ccc(F)cc3)nc12.Cl`, the melting point fell in the range of 161 to 162 °C. Next, `CCCc1nn(C)c2c(Oc3ccc(F)cc3)nc(-c3ccccc3)nc12`: 126 to 128 °C; `Cc1nn(C)c2c(Nc3ccc(C(N)=O)cc3)nc(-c3ccc(F)cc3)nc12.Cl`: 272 to 274 °C; `CCCc1nn(C)c2c(-c3ccc(OC)c(F)c3)nc(-c3ccc(F)cc3)nc12` [E 59, 7-(3-fluoro-4-methoxy-phenyl)-5-(4-fluoro-phenyl)-1-methyl-3-propyl-1H-pyrazolo[4,3-d]pyrimidine]: 174 to 176 °C. For `Cc1nn(C)c2c(Nc3ccc(O)c(Cl)c3)nc(-c3cccs3)nc12.Cl`, the melting point is more than 240 °C. As to `CCCc1nn(C)c2c(-c3ccc(SC)cc3)nc(-c3ccc(F)cc3)nc12` [E 62, 5-(4-fluoro-phenyl)-1-methyl-7-(4-methylsulfanyl-phenyl)-3-propyl-1H-pyrazolo[4,3-d]pyrimidine], the melting point fell in the range of 114 to 116 °C.

As to `COc1cc(Nc2nc(-c3cccs3)nc3c(C)nn(C)c23)ccc1Cl.Cl`, the melting point is more than 240 °C. In turn, `CCCc1nn(C)c2c(Nc3ccc(OC)c(OC)c3)nc(-c3ccc(F)cc3)nc12.Cl` returned a melting point of 178 to 181 °C. Next, `Cc1nn(C)c2cc(-c3ccc(F)cc3)nc(Nc3cccc(C(F)(F)F)c3)c12.Cl`: 220 to 222 °C; `CCCc1nn(C)c2c(Nc3ccc(O)c(Cl)c3)nc(-c3ccccc3)nc12.Cl`: 180 °C; `COc1cc(Nc2nc(-c3ccccc3)nc3c(C)nn(C)c23)ccc1Cl.Cl`: 222 to 224 °C. With `CCCc1nn(C)c2c(C#Cc3ccccc3)nc(-c3ccc(F)cc3)nc12` [E 70, 5-(4-fluoro-phenyl)-1-methyl-7-phenylethynyl-3-propyl-1H-pyrazolo[4,3-d]pyrimidine] the figure was 156 to 158 °C.

As to `Cc1nn(C)c2c(Nc3ccc(O)c(Cl)c3)nc(-c3ccc(F)cc3)nc12.Cl`, the melting point is 238 to 240 °C. Next, `CCCc1nn(C)c2c(-c3ccc(S(C)(=O)=O)cc3)nc(-c3ccc(F)cc3)nc12` [E 69, 5-(4-fluoro-phenyl)-7-(4-methanesulfonyl-phenyl)-1-methyl-3-propyl-1H-pyrazolo[4,3-d]pyrimidine]: 208 to 210 °C; `CCCc1nn(C)c2c(Nc3ccc4c(c3)OCO4)nc(-c3cccs3)nc12` (as salt: hydrochloride) [E 52, benzo[1,3]dioxol-5-yl-(1-methyl-3-propyl-5-thiophen-2-yl-1H-pyrazolo[4,3-d]pyrimidin-7-yl)-amine hydrochloride]: 246 to 250 °C.

As for `CCCc1nn(C)c2c(-c3ccc(O)c(C)c3)nc(-c3ccccc3)nc12` [E 57, 2-methyl-4-(1-methyl-5-phenyl-3-propyl-1H-pyrazolo[4,3-d]pyrimidin-7-yl)-phenol], the melting point fell in the range of 204 to 206 °C.

As to `CCCc1nn(C)c2c(-c3ccccc3)nc(-c3ccc(F)cc3)nc12` [E 64, 5-(4-fluoro-phenyl)-1-methyl-7-phenyl-3-propyl-1H-pyrazolo[4,3-d]pyrimidine], the melting point lay in the range of 115 to 118 °C. With `Cc1nn(C)c2c(-c3ccc4c(c3)OCO4)nc(-c3ccccc3)nc12` [E 65, 7-benzo[1,3]dioxol-5-yl-1,3-dimethyl-5-phenyl-1H-pyrazolo[4,3-d]pyrimidine] the figure was 142 to 144 °C. Next, `CCCc1nn(C)c2c(Nc3ccc(OC)c(F)c3)nc(-c3ccccc3OCC)nc12.Cl`: 194 to 196 °C; `Cc1nn(C)c2cc(-c3ccc(F)cc3)nc(Nc3ccc(Cl)nc3)c12.Cl`: 215 to 218 °C. Next, `Cc1nn(C)c2c(-c3cccc(S(C)(=O)=O)c3)nc(-c3ccc(F)cc3)nc12` [E 68, 5-(4-fluoro-phenyl)-7-(3-methanesulfonyl-phenyl)-1,3-dimethyl-1H-pyrazolo[4,3-d]pyrimidine]: 176 to 178 °C; `CCCc1nn(C)c2c(N3CCC(O)CC3)nc(-c3ccc(OC)c(OC)c3)nc12` [E 20, 1-[5-(3,4-dimethoxy-phenyl)-1-methyl-3-propyl-1H-pyrazolo[4,3-d]pyrimidin-7-yl]-piperidin-4-ol]: 142 to 144 °C. Compound `Cc1nn(C)c2cc(-c3ccc(F)cc3)nc(Nc3ccc(Cl)c(C(F)(F)F)c3)c12.Cl` registered a melting point of 223 to 225 °C. As for `CCCc1nn(C)c2c(Nc3ccc(Cl)c(OC)c3)nc(-c3cccs3)nc12.Cl`, the melting point was in the range of 200 to 204 °C.

Consider `CCCc1nn(C)c2c(Nc3ccc(Cl)c(OC)c3)nc(-c3ccccc3)nc12.Cl`, for which the melting point lay in the range of 228 to 230 °C. Next, `Cc1nn(C)c2c(-c3ccccc3)nc(-c3ccc(F)cc3)nc12` [E 66, 5-(4-fluoro-phenyl)-1,3-dimethyl-7-phenyl-1H-pyrazolo[4,3-d]pyrimidine]: 150 to 152 °C. `Cc1nc2cc(Nc3nc(-c4ccccc4)nc4c(C)nn(C)c34)ccc2o1.Cl` registered a melting point of 272 to 274 °C. Next, `Cc1nn(C)c2cc(-c3ccc(F)cc3)nc(-c3ccc(S(C)(=O)=O)cc3)c12` [E 98, 6-(4-fluoro-phenyl)-4-(4-methanesulfonyl-phenyl)-1,3-dimethyl-1H-pyrazolo[4,3-c]pyridine]: 228 to 230 °C; `CCCc1nn(C)c2c(-n3ccc4cc(Cl)ccc43)nc(-c3ccc(F)cc3)nc12` [E 89]: 146 to 148 °C.

`Cc1nn(C)c2cc(-c3ccc(F)cc3)nc(Nc3ccc(OC(F)(F)F)cc3)c12.Cl` gave a melting point of 248 to 250 °C. Next, `Cc1nn(C)c2c(N(C)C)nc(-c3ccccc3)nc12` [E 102, (1,3-dimethyl-5-phenyl-1H-pyrazolo[4,3-d]pyrimidin-7-yl)-dimethyl-amine]: 86 to 88 °C. In the case of `CCCc1nn(C)c2c(-c3ccc(O)c(C)c3)nc(-c3ccc(OC)c(OC)c3)nc12` [E 53, 4-[5-(3,4-dimethoxy-phenyl)-1-methyl-3-propyl-1H-pyrazolo[4,3-d]pyrimidin-7-yl]-2-methyl-phenol], the melting point was 198 to 200 °C. Next, `Cc1nn(C)c2c(F)nc(-c3ccccc3)nc12` [E 99, 7-fluoro-1,3-dimethyl-5-phenyl-1H-pyrazolo[4,3-d]pyrimidine]: 110 to 112 °C; `Cc1nn(C)c2c(-n3ccc4ccccc43)nc(-c3ccccc3)nc12` [E 90, 7-indol-1-yl-1,3-dimethyl-5-phenyl-1H-pyrazolo[4,3-d]pyrimidine]: 141 to 143 °C; `Cl.Fc1ccc(-c2nc(Nc3cccc(F)c3)c3cnn(-c4ccccc4)c3n2)cc1`: 210 to 213 °C. Next, `Cl.Fc1ccc(-c2nc(Nc3ccc(OC(F)(F)F)cc3)c3cnn(-c4ccccc4)c3n2)cc1`: 220 to 222 °C; `CCCc1nn(C)c2c(-c3ccc(OC)c(C)c3)nc(-c3ccccc3)nc12` [E 60, 7-(4-methoxy-3-methyl-phenyl)-1-methyl-5-phenyl-3-propyl-1H-pyrazolo[4,3-d]pyrimidine]: 158 to 160 °C. `CCCc1nn(C)c2c(-n3ccc4ccccc43)nc(-c3ccc(F)cc3)nc12` [E 88, 5-(4-fluoro-phenyl)-7-indol-1-yl-1-methyl-3-propyl-1H-pyrazolo[4,3-d]pyrimidine] gave a melting point of 114 to 116 °C. Next, `CCCc1nn(C)c2c(Nc3ccc(OC)c(F)c3)nc(C(F)(F)F)nc12.Cl`: 136 to 138 °C. With `CC(=O)Nc1cc(Nc2nc(-c3ccc(F)cc3)nc3c(C)nn(C)c23)ccc1O.Cl` the figure was 250 to 252 °C; with `Cc1nn(C)c2c(-c3ccc(OC(F)(F)F)cc3)nc(-c3ccc(F)cc3)nc12` [E 101, 5-(4-fluoro-phenyl)-1,3-dimethyl-7-(4-trifluoromethoxy-phenyl)-1H-pyrazolo[4,3-d]pyrimidine], 170 to 172 °C; with `CCCc1nn(C)c2c(-c3ccc(C)cc3)nc(-c3ccc(F)cc3)nc12` [E 63, 5-(4-fluoro-phenyl)-1-methyl-3-propyl-7-p-tolyl-1H-pyrazolo[4,3-d]pyrimidine], 148 to 150 °C. With `CCCc1nn(C)c2c(Nc3ccc(Cl)c(OC)c3)nc(-c3ccc(F)cc3)nc12.Cl` the figure was 230 to 232 °C. `CCCc1nn(C)c2c(Nc3ccc(O)c(Cl)c3)nc(-c3ccc(F)cc3)nc12.Cl` displayed a melting point of 200 to 202 °C. With `Cc1nn(C)c2c(-c3cccc(S(C)(=O)=O)c3)nc(-c3ccccc3)nc12` [E 67, 7-(3-methanesulfonyl-phenyl)-1,3-dimethyl-5-phenyl-1H-pyrazolo[4,3-d]pyrimidine] the figure was 210 to 212 °C. Turning to `CCCc1nn(C)c2c(-c3ccc(O)c(C)c3)nc(-c3ccc(OC)c(O)c3)nc12` [E 54, 4-[5-(3-hydroxy,4-methoxy-phenyl)-1-methyl-3-propyl-1H-pyrazolo[4,3-d]pyrimidin-7-yl]-2-methyl-phenol], the melting point was in the range of 180 to 182 °C. Next, `Cc1nn(C)c2c(Nc3cccc(F)c3)nc(-c3ccccc3)nc12.Cl`: 218 to 220 °C. With `CCCc1nn(C)c2c(Nc3cccc(C(F)(F)F)c3)nc(-c3ccc(F)cc3)nc12.Cl` the figure was 220 to 222 °C.

The term melting point denotes the temperature of the solid-liquid transition.

Values taken from patent US20060128729A1, “Novel bicyclic heterocyclic compounds, process for their preparation and compositions containing them” (priority 2004, published 2006).
